Assay results as given in patent US20260217708A1, “FUSED BENZAZEPINE DERIVATIVES FOR USE IN THE TREATMENT OF CANCER AND EPILEPSY” (UCB BIOPHARMA SRL, priority 2023, published 2026).

Legend:
system Xc^− [1] = target: T1, system Xc^− (Homo sapiens, UniProt Q9UPY5); test: [^14C]L-Cystine uptake assay; type: cell-based; parameters: endogenous in cells; host or cells: H4 cells; conditions: H4 cells, sodium-free HEPES buffer, 0.5 μM L-[14C]Cystine and 4.5 μM L-Cystine, 1 hour at 37° C.; read-out: pIC50 [^14C] L-Cystine uptake assay (converted)
T1 sequence (Q9UPY5 1-501): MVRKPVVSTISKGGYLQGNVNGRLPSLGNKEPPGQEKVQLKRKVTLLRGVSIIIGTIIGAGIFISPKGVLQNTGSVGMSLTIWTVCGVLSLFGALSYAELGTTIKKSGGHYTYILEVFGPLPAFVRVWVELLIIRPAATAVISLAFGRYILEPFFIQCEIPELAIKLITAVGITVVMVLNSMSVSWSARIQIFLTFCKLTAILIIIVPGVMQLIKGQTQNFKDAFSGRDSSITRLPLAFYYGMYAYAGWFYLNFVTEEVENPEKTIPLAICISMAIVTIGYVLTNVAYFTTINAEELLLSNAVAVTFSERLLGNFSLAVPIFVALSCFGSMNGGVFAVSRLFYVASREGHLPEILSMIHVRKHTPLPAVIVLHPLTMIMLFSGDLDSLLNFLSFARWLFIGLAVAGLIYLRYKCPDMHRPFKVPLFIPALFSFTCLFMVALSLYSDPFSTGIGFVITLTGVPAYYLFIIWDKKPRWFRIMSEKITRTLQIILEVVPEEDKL
T1 sequence (P08195 1-529 partner): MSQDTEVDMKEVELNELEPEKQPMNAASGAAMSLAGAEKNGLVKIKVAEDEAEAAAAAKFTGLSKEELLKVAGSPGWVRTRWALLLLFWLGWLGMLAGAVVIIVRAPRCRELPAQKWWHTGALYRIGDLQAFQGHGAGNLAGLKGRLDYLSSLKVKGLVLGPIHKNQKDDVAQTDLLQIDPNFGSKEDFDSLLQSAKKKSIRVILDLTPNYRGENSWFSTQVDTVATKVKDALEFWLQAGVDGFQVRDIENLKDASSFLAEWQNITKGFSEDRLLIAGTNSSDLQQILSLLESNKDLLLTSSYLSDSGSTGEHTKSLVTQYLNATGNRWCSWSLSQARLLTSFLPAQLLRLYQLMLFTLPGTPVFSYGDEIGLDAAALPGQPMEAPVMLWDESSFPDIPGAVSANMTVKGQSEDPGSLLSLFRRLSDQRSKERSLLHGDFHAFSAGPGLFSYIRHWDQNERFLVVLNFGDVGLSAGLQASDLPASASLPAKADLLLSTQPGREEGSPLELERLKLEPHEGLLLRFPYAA
Method in brief: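 Compound effect is given as pIC50, taken between controls of 1% DMSO and 50 μM Erastin. Human H4 cells were pretreated 15 min with compound in sodium-free buffer, then took up 0.5 μM [14C]cystine with 4.5 μM cold cystine for 1 hour at 37° C, read by scintillation proximity counting.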

system Xc^− [2] = target: T1, system Xc^−; test: Cystine-induced glutamate release assay; type: cell-based; parameters: endogenous in cells; host or cells: H4 cells; conditions: H4 cells, sodium-free HEPES buffer, 50 μM L-Cystine, 2 hours, Amplex Red glutamate readout; read-out: pIC50 Cystine-induced glutamate release assay (converted)
Method in brief: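 IC50 (reported as pIC50) normalized to DMSO 1% and Erastin 50 μM controls, from Amplex Red fluorescence of glutamate exported into supernatant. H4 cells were washed into sodium-free buffer to exclude EAAT transport, then given compound with 50 μM L-cystine for 2 h in the incubator.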

IC50 (system Xc^− [1]) [nM]	IC50 (system Xc^− [2]) [nM]	SMILES
< 15.8	39.8 to 100	COc1cc2c(c(OC)n1)-c1cccnc1CC(=O)N2CC(=O)Nc1ccc(C(F)(F)F)cc1 [#108, 2-(3,5-dimethoxy-9-oxo-4,8,12-triazatricyclo[9.4.0.0^2,7]pentadeca-1(11),2,4,6,12,14-hexaen-8-yl)-N-[4-(trifluoromethyl)phenyl]acetamide]
39.8 to 100	100 to 501	Cc1cc2c(c(F)n1)-c1ccnnc1CC(=O)N2CC(=O)Nc1ccc(C(F)(F)F)cc1 [#110, 2-(3-fluoro-5-methyl-9-oxo-4,8,12,13-tetrazatricyclo[9.4.0.0^2,7]pentadeca-1(11),2,4,6,12,14-hexaen-8-yl)-N-[4-(trifluoromethyl)phenyl]acetamide]
< 15.8	39.8 to 100	Cc1cc2c(c(F)n1)-c1cncnc1C(C)C(=O)N2CC(=O)Nc1ccc(C(F)(F)F)cc1 (stereo not drawn) [#112, 2-(15-fluoro-8,13-dimethyl-9-oxo-4,6,10,14-tetrazatricyclo[9.4.0.0^2,7]pentadeca-1(15),2(7),3,5,11,13-hexaen-10-yl)-N-[4-(trifluoromethyl)phenyl]acetamide]
39.8 to 100	100 to 501	Cc1cc2c(c(Cl)n1)-c1cccnc1C(C)C(=O)N2CC(=O)Nc1ccc(C#N)cc1 (stereo not drawn) [#115, 2-(3-chloro-5,10-dimethyl-9-oxo-4,8,12-triazatricyclo[9.4.0.0^2,7]pentadeca-1(11),2,4,6,12,14-hexaen-8-yl)-N-(4-cyanophenyl)acetamide]
39.8 to 100	100 to 501	COCC1C(=O)N(CC(=O)Nc2ccc(C(F)(F)F)cc2)c2cc(C)nc(Cl)c2-c2ccccc21 (stereo not drawn) [#122, 2-[1-chloro-7-(methoxymethyl)-3-methyl-6-oxo-7H-pyrido[3,4-a][3]benzazepin-5-yl]-N-[4-(trifluoromethyl)phenyl]acetamide]
39.8 to 100	100 to 501	Cc1cc2c(c(F)n1)-c1c[nH]nc1CC(=O)N2CC(=O)Nc1ccc(C(F)(F)F)cc1 [#123, 2-(14-fluoro-12-methyl-8-oxo-4,5,9,13-tetrazatricyclo[8.4.0.0^2,6]tetradeca-1(10),2,5,11,13-pentaen-9-yl)-N-[4-(trifluoromethyl)phenyl]acetamide]
< 15.8	39.8 to 100	Cc1cc2c(c(C#N)n1)-c1cc(F)ccc1CC(=O)N2CC(=O)Nc1ccc(C(F)(F)F)cc1 [#127, 2-(1-cyano-10-fluoro-3-methyl-6-oxo-7H-pyrido[4,3-d][3]benzazepin-5-yl)-N-[4-(trifluoromethyl)phenyl]acetamide]
< 15.8	15.8 to 39.8	Cc1cc2c(c(F)n1)-c1cccnc1C(C)C(=O)N2CC(=O)Nc1ccc(C)c(F)c1 (stereo not drawn) [#128, 2-(3-fluoro-5,10-dimethyl-9-oxo-4,8,12-triazatricyclo[9.4.0.0^2,7]pentadeca-1(11),2(7),3,5,12,14-hexaen-8-yl)-N-(3-fluoro-4-methyl-phenyl)acetamide]
39.8 to 100	39.8 to 100	Cc1cc2c(c(F)n1)-c1cccnc1C(C)C(=O)N2CC(=O)Nc1ccc2c(cnn2C)c1 (stereo not drawn) [#129, 2-(3-fluoro-5,10-dimethyl-9-oxo-4,8,12-triazatricyclo[9.4.0.0^2,7]pentadeca-1(11),2(7),3,5,12,14-hexaen-8-yl)-N-(1-methylindazol-5-yl)acetamide]

More lines, now with the values behind:

SMILES	IC50 (system Xc^− [1]) [nM]	IC50 (system Xc^− [2]) [nM]
Cc1cc2c(c(F)n1)-c1cc(C)nn1CC(=O)N2CC(=O)Nc1ccc(C(F)(F)F)cc1 [#106, 2-(14-fluoro-4,12-dimethyl-8-oxo-5,6,9,13-tetrazatricyclo[8.4.0.0^2,6]tetradeca-1(10),2,4,11,13-pentaen-9-yl)-N-[4-(trifluoromethyl)phenyl]acetamide]	100 to 501	39.8 to 100
COC1C(=O)N(CC(=O)Nc2ccc(C(F)(F)F)cc2)c2cc(C)nc(Cl)c2-c2ccccc21 (stereo not drawn) [#107, 2-(1-chloro-7-methoxy-3-methyl-6-oxo-7H-pyrido[3,4-a][3]benzazepin-5-yl)-N-[4-(trifluoromethyl)phenyl]acetamide]	< 15.8	15.8 to 39.8
COc1nc2c(cc1C)N(CC(=O)Nc1ccc(C(F)(F)F)cc1)C(=O)C(C)c1ncccc1-2 (stereo not drawn) [#109, 2-(4-methoxy-5,10-dimethyl-9-oxo-3,8,12-triazatricyclo[9.4.0.0^2,7]pentadeca-1(11),2,4,6,12,14-hexaen-8-yl)-N-[4-(trifluoromethyl)phenyl]acetamide]	15.8 to 39.8	39.8 to 100
Cc1cc2c(c(F)n1)-c1ccnn1C(C)C(=O)N2CC(=O)Nc1ccc(C(F)(F)F)cc1 (stereo not drawn) [#111, 2-(14-fluoro-7,12-dimethyl-8-oxo-5,6,9,13-tetrazatricyclo[8.4.0.0^2,6]tetradeca-1(10),2,4,11,13-pentaen-9-yl)-N-[4-(trifluoromethyl)phenyl]acetamide]	39.8 to 100	100 to 501
COc1nc(F)cc2c1-c1cccnc1CC(=O)N2CC(=O)Nc1ccc(C(F)(F)F)cc1 [#113, 2-(5-fluoro-3-methoxy-9-oxo-4,8,12-triazatricyclo[9.4.0.0^2,7]pentadeca-1(11),2,4,6,12,14-hexaen-8-yl)-N-[4-(trifluoromethyl)phenyl]acetamide]	< 15.8	39.8 to 100
Cc1cc2c(c(Cl)n1)-c1cccnc1C(C)C(=O)N2CC(=O)Nc1ccc(C(F)(F)F)cc1 (stereo not drawn) [#114, 2-(3-chloro-5,10-dimethyl-9-oxo-4,8,12-triazatricyclo[9.4.0.0^2,7]pentadeca-1(11),2,4,6,12,14-hexaen-8-yl)-N-[4-(trifluoromethyl)phenyl]acetamide]	< 15.8	15.8 to 39.8
CC(=O)N(C)c1nc2c(s1)-c1ccccc1CC(=O)N2CC(=O)Nc1ccc(C(F)(F)F)cc1 [#118, 2-[2-[acetyl(methyl)amino]-5-oxo-6H-thiazolo[4,5-d][3]benzazepin-4-yl]-N-[4-(trifluoromethyl)phenyl]acetamide]	39.8 to 100	100 to 501
Cc1cc2c(n(C)c1=O)-c1cccnc1C(C)C(=O)N2CC(=O)Nc1ccc(C(F)(F)F)cc1 (stereo not drawn) [#119, N-[4-(trifluoromethyl)phenyl]-2-(3,5,10-trimethyl-4,9-dioxo-3,8,12-triazatricyclo[9.4.0.0^2,7]pentadeca-1(11),2(7),5,12,14-pentaen-8-yl)acetamide]	15.8 to 39.8	15.8 to 39.8
Cc1ccc(NC(=O)CN2C(=O)C(C)c3ccccc3-c3c2cc(C)c(=O)n3C)cc1F (stereo not drawn) [#120, N-(3-fluoro-4-methyl-phenyl)-2-(1,3,7-trimethyl-2,6-dioxo-7H-pyrido[3,2-d][3]benzazepin-5-yl)acetamide]	< 15.8	15.8 to 39.8
COc1cc2c(c(F)n1)-c1cccnc1CC(=O)N2CC(=O)Nc1ccc(C(F)(F)F)cc1 [#124, 2-(3-fluoro-5-methoxy-9-oxo-4,8,12-triazatricyclo[9.4.0.0^2,7]pentadeca-1(11),2,4,6,12,14-hexaen-8-yl)-N-[4-(trifluoromethyl)phenyl]acetamide]	15.8 to 39.8	39.8 to 100
CCn1c(C)cc2c(c1=O)-c1cccnc1CC(=O)N2CC(=O)Nc1ccc(C(F)(F)F)cc1 [#125, 2-(4-ethyl-5-methyl-3,9-dioxo-4,8,12-triazatricyclo[9.4.0.0^2,7]pentadeca-1(15),2(7),5,11,13-pentaen-8-yl)-N-[4-(trifluoromethyl)phenyl]acetamide]	39.8 to 100	39.8 to 100
Cc1cc2c(c(Cl)n1)-c1cccnc1N(C)C(=O)N2CC(=O)Nc1ccc(C(F)(F)F)cc1 [#126, 2-(3-chloro-5,10-dimethyl-9-oxo-4,8,10,12-tetrazatricyclo[9.4.0.0^2,7]pentadeca-1(11),2,4,6,12,14-hexaen-8-yl)-N-[4-(trifluoromethyl)phenyl]acetamide]	< 15.8	15.8 to 39.8
